In US20130023504A1, “Modulation of Prostaglandin/Cyclooxygenase Metabolic Pathways” (HUNTER-FLEMING LIMITED, priority 2006, published 2013):
Where “and” joins values, the source holds several entries; their conditions need not be identical. Equal values may be shown once.

Experiments:
[1] = tested on: PC-12 cells; assay: Ischaemia (oxygen-glucose deprivation)-induced cell death in NGF-differentiated PC-12 cells, Trypan Blue exclusion; assay type: cell-based; conditions: vs. ischemia alone
Description: PC-12 cells were maintained on flasks coated with Collagen typel in PC-12 media with the following composition; RPMI 1640 without L-glutamine with 2 mM L-glutamine, 10 mM HEPES, 1 mM Sodium Pyruvate, additional glucose to give a final concentration of 4.5 g/L (RPMI normally has 2 g/L), 10% heat inactivated horse serum, 5% foetal calf serum and 50 units of penicillin/streptomycin. Media was changed every 2 days.
Confluent cultures of PC-12 cells were differentiated by culturing for 7 days in PC-12 medium without serum but with 50 ng/mlNGF (PC-12 NGF media). The cells were harvested, washed, counted and 1×10^5 PC-12 cells/well were plated overnight in a micro titre plate in glucose free PC-12 NGF medium. The medium was then changed to glucose-free PC-12 NGF medium containing the compounds to be tested and the plates left under normoxic conditions for 30 minutes.
During this stage, the media and test substances for the anoxic exposure were placed in a chamber and de-oxygenated with 95% N2/5% CO2. The media in the plates was changed with the de-oxygenated media and the plates then placed in an anaerobic chamber gassed with 95% N2 5% CO2 for 10 minutes before being sealed and incubated at 37° C. overnight (18 hours). For normoxia controls, the cells were treated identically to ischemic treatments except that all incubations were in 5% CO2/95% air.
Viability was determined using Trypan Blue exclusion.

[2] = tested on: human peripheral blood mononuclear cells; assay: Prostaglandin (PGD2, PGE2, 15d-PGJ2) production by human peripheral blood mononuclear cells with/without TNF-α, EIA (Example 2); assay type: cell-based
Description: Mononuclear cells (monocytes and lymphocytes) were prepared by subjecting 48 ml of whole human blood to Ficoll/hypaque density centrifugation. Blood was layered on top of the ficoll (density=1.077 g/ml) and centrifuged at 400 g for 1 hour (22° C.), after which cells at the interphase were removed by pipette and transferred to fresh tubes. Tubes were filled with RPMI 1640 culture medium (2 volumes) thoroughly mixed and then centrifuged at 400 g for 5 minutes (22° C.). The supernatant was discarded and the cell pellet was re-suspended in RPMI 1640 culture medium and the volume adjusted to give the appropriate number of cells per incubation as indicated in the results section below. Cells were incubated in sterile plastic 1.5 ml tubes in a final volume of 1 ml RPMI 1640 medium for 18 hours at 37° C., 5% CO2 in air and 100% humidity. 7β-OH-EPIA was then added and cells incubated for a further hour at 37° C. before adding recombinant human Tumour Necrosis Factor-α (TNF-α) and incubations continued for a further 3 hours. 7β-OH-EPIA was prepared in dimethyl sulphoxide (DMSO), all remaining agents were prepared in RPMI 1640 medium. The requisite controls contained either medium or the same concentration of DMSO which was always <0.1% v/v. Incubations were terminated by centrifuging tubes at 11,000 g for 30 seconds at 22° C. and transferring the supernatants to fresh 1.5 ml tubes. Samples were then either processed immediately for PGD2 estimation as described below or stored at −20° C. prior to PGE2 or 15d-PGJ2 measurement.
Prostaglandin production by human monocytic cells in response to 7β-OH-EPIA in either the absence or presence of stimulation with TNF-α was determined by measuring the extracellular levels of eicosanoid using commercially available EIA kits.
PGD2 cannot be assayed directly from cell supernatants because it is chemically unstable and rapidly degrades to a number of J series prostaglandins including, PGJ2, Δ^12-PGJ2, and 15-deoxy-Δ^12,14-PGJ2. In order to circumvent this problem, unstable PGD2 was chemically treated to give a stable derivative, in this case prostaglandin D2-Methoxamine (PGD2-MOX) which was be stored for subsequent analysis. Immediately following termination of incubations, 100 μl of sample supernatant was added to 1.5 ml tubes containing 100 μl of a Methyl Oximating Reagent (methoxy)amine hydrochloride (MOX-HCl) and sodium acetate dissolved in a 10:90 v/v, ethanol/water solution. Tubes were then placed in a water bath and the reaction allowed to proceed for 30 minutes at 60° C. At the end of this period samples were stored at −80° C. Levels of PGD2 were subsequently estimated using Cayman Chemical's Prostaglandin D2-MOX EIA Kit (Cat. No. 512011).
Extracellular levels of PGE2 were estimated using R & D Systems' Parameter PGE2 EIA Kit according to the manufacturer's instructions for the high sensitivity protocol.
Extracellular levels of 15d-PGJ2 were estimated using Assay Designs' Correlate-EIA Prostaglandin 15-deoxy-Δ^12,14-prostaglandin J2 EIA Kit (Cat. No. 900-023) according to the manufacturer's instructions.
Results are expressed as the mean±s.d. for n=3 incubations. An unpaired Students t-Test was used to determine the probability (P) that two sets of data were different from each other. The difference was considered to be significant when P<0.05. Statistical calculations were carried out on an Apple Macintosh computer using the software package Statview, from Abacus Concepts Inc.

CC12CCC3C(C1CCC2=O)[C@@H](O)C[C@H]1C[C@@H](O)CCC31C (stereo partly drawn) [Compound 7β-OH-EPIA, 7β-hydroxy-EPIAndrosterone]
decrease in cell death ([1]; 1 μM): 26% and 25%
decrease in cell death ([1]; 10 μM): 53% and 50%
effect on TNF-α-induced PGD2 biosynthesis ([2]; 0.1 nM-100 nM, TNF-α (0.5 μg/ml)): no effect
increase in 15d-PGJ2 production ([2]; 0.1 nM-1000 nM, in the presence of TNF-α, vs respective control): 2-2.5 fold
increase in 15d-PGJ2 levels ([2]; 0.1 nM-1000 nM, without TNF-α, vs DMSO controls): 9-12 fold
15d-PGJ2 levels in cell supernatants ([2]; 0.1 nM, 4 hours, without TNF-α): 506 ± 101 pg/mL
15d-PGJ2 levels in cell supernatants ([2]; 0.1 nM, TNF-α (10 ng/ml)): 348 ± 48 pg/mL
PGE2 levels compared to DMSO controls ([2]; 1 nM-1000 nM, 4 hours, without TNF-α): not statistically significantly different
15d-PGJ2 levels in cell supernatants ([2]; 1 nM, 4 hours, without TNF-α): 539 ± 51 pg/mL
15d-PGJ2 levels in cell supernatants ([2]; 1 nM, TNF-α (10 ng/ml)): 334 ± 24 pg/mL
PGE2 levels in cell supernatants ([2]; 1 nM, TNF-α (10 ng/ml)): 75 ± 25 pg/mL
15d-PGJ2 levels in cell supernatants ([2]; 10 nM, 4 hours, without TNF-α): 520 ± 45 pg/mL
15d-PGJ2 levels in cell supernatants ([2]; 10 nM, TNF-α (10 ng/ml)): 356 ± 85 pg/mL
PGE2 levels in cell supernatants ([2]; 10 nM, TNF-α (10 ng/ml)): 82 ± 23 pg/mL
15d-PGJ2 levels in cell supernatants ([2]; 100 nM, 4 hours, without TNF-α): 450 ± 133 pg/mL
PGD2 levels in cell supernatants ([2]; 100 nM, 4 hours, without TNF-α): 102 ± 24 pg/mL
15d-PGJ2 levels in cell supernatants ([2]; 100 nM, TNF-α (10 ng/ml)): 406 ± 30 pg/mL
PGE2 levels in cell supernatants ([2]; 100 nM, TNF-α (10 ng/ml)): 74 ± 12 pg/mL
15d-PGJ2 levels in cell supernatants ([2]; 1000 nM, 4 hours, without TNF-α): 590 ± 84 pg/mL
15d-PGJ2 levels in cell supernatants ([2]; 1000 nM, TNF-α (10 ng/ml)): 318 ± 100 pg/mL
effect on TNF-α-induced PGE2 production ([2]; 1000 nM, TNF-α (10 ng/ml)): no effect
PGD2 levels in cell supernatants ([2]; 1000 nM, TNF-α (0.5 μg/ml)): 164 ± 31 pg/mL
